Experimental data published in patent publication US20070036871A1, “TECHNIQUE FOR TREATMENT AND PREVENTION OF FUNGAL DISEASES IN GROWING GRAPES BY APPLICATION OF A SODIUM CHLORITE, UREA SULFURIC ACID SOLUTION” (priority 2005, published 2007).
Several values for one entry are separate records, joined by “and”; a condition that tells them apart may be missing. Identical values can stand only once.

System: powdery mildew
Assay: Field trials of foliar fungicide treatments on Carignane grape vines against powdery mildew (Example IV)
Assay type: in vivo
[1] = individual plot data, rated July 3 after June 22 treatment
[2] = individual plot data, rated July 12 after July 3 treatment
[3] = individual plot data, rated June 22 after June 12 treatment
[4] = rated July 3 after June 22 treatment (10 days after second treatment), average of plots
[5] = rated July 12 after July 3 treatment (10 days after third treatment), average of plots
[6] = rated June 22 after June 12 treatment (10 days after first treatment), average of plots

## [S] [4-6 lb/acre sulphur, sulphur]
[1]
  % fruit w/ symptoms: 20% and 40% and 15% and 5%
  % leaves w/ symptoms: 10% and 20% and 2% and 8%
  % severity of infected fruit: 15% and 30% and 10% and 5%
  % severity of infected leaves: 15% and 20% and 4% and 5%
[2]
  % fruit w/ symptoms: 10% and 60% and 40% and 20%
  % leaves w/ symptoms: 2% (3×) and 15%
  % severity of infected fruit: 10% (2×) and 40% and 25%
  % severity of infected leaves: 5% (3×) and 2%
[3]
  % fruit w/ symptoms: 30% and 40% and 20% and 15%
  % leaves w/ symptoms: 2% (2×) and 20% and 5%
  % severity of infected fruit: 8% and 30% and 6% and 20%
  % severity of infected leaves: 2% (2×) and 18% and 5%
[4]
  % fruit w/ symptoms: 20%
  % leaves w/ symptoms: 10%
  % severity of infected fruit: 15%
  % severity of infected leaves: 11% and 20%
[5]
  % fruit w/ symptoms: 32.5%
  % leaves w/ symptoms: 5.25%
  % severity of infected fruit: 21.25%
  % severity of infected leaves: 4.25%
[6]
  % fruit w/ symptoms: 26.25%
  % leaves w/ symptoms: 7.25%
  % severity of infected fruit: 16%
  % severity of infected leaves: 6.75%
Ten days after the third treatment
  fungal disease control (in words): substantially lower disease infection in leaves over the low rate NaClO2+US acid treatment
